# Source: patent publication US11708562B2, “Differentiation of human embryonic stem cells” (Janssen Biotech, Inc., priority 2006, dated 2023)
# System: H9P33, H9P44 and H9P48 cells
# Test: Microarray analysis of definitive endoderm on MEFs vs MATRIGEL +/- Wnt-3A (Table VI)
# Conditions: log format
# Description: Controls for each group included cells plated on […]-coated dishes and cultured in MEF-conditioned medium or cells plated on MEFs and cultured in ES medium. All groups contained three biological replicates and each biological replicate was repeated on two separate gene chips.
# Sample preparation, hybridization, and image analysis were performed according to the Affymetrix Human Genome U133 Plus 2.0 Array. Following normalization and a log transformation, data analysis was performed using OmniViz® software (MA) and […] (VizXLabs, WA). Significant differences in gene expression between the samples were evaluated using analysis of variance and an F-test with adjusted P-value (Benjamini and Hochberg correction) of ≤0.05. Only genes with a present call in at least one group were included in the analysis.
# [1] = DE treatment in low serum + AA on MATRIGEL
# [2] = DE treatment in low serum + AA on MEFS
substance,measurement,setting,value
Activin A: a member of the TGFβ superfamily; growth factor (R&D Systems) used to differentiate human embryonic stem cells,"mean normalized intensity: Homo sapiens chorionic somatomammotropin hormone 2 (CSH2), transcript variant 1, mRNA.",[1],1.124
same,"mean normalized intensity: Homo sapiens chorionic somatomammotropin hormone 2 (CSH2), transcript variant 4, mRNA.",[1],0.8122
same,"mean normalized intensity: Homo sapiens galanin receptor 1 (GALR1), mRNA.",[1],2.507
same,"mean normalized intensity: Homo sapiens growth hormone 2 (GH2), transcript variant 2, mRNA.",[1],0.9226
same,"mean normalized intensity: Homo sapiens hypothetical protein FLJ20075 (FLJ20075), mRNA.",[1],−0.3592
same,"mean normalized intensity: Homo sapiens mRNA for SCCA2b, complete cds.",[1],3.329
same,mean normalized intensity: Homo sapiens mRNA; cDNA DKFZp586P1124 (from clone DKFZp586P1124),[1],0.4856
same,"mean normalized intensity: Homo sapiens methyl-CpG binding protein MBD2 (MBD2) mRNA, complete cds.",[1],0.4906
same,"mean normalized intensity: Homo sapiens tachykinin, precursor 1 (TAC1), transcript variant beta, mRNA.",[1],2.773
same,"mean normalized intensity: Homo sapiens testis expressed sequence 14 (TEX14), mRNA.",[1],3.512
same,"mean normalized intensity: Homo sapiens, Similar to LIM homeobox protein 8, clone IMAGE: 4839343, mRNA.",[1],−0.06288
same,"mean normalized intensity: Homo sapiens, Similar to cadherin 6, type 2, K-cadherin (fetal kidney), clone MGC: 1470, mRNA, complete cds.",[1],2.547
same,"mean normalized intensity: Homo sapiens, Similar to hypothetical protein FLJ10058, clone MGC: 34305 IMAGE: 5167647, mRNA, complete cds.",[1],1.698
same,"mean normalized intensity: Homo sapiens, Similar to hypothetical protein FLJ32001, clone MGC: 39559 IMAGE: 4828136, mRNA, complete cds.",[1],0.5207
same,"mean normalized intensity: Homo sapiens, clone IMAGE: 4067166, mRNA",[1],0.1959
same,"mean normalized intensity: Homo sapiens, clone IMAGE: 4828836, mRNA.",[1],0.9729
same,"mean normalized intensity: Homo sapiens, serine (or cysteine) proteinase inhibitor, clade B (ovalbumin), member 3, clone MGC: 12244, mRNA, complete cds.",[1],1.969
same,mean normalized intensity: Human mRNA upregulated during camptothecin-induced apoptosis of U937 cells.,[1],0.4945
same,"mean normalized intensity: Human platelet-derived growth factor alpha-receptor (PDGFRA) mRNA, exons 13-16",[1],2.445
same,mean normalized intensity: KIAA1151 protein,[1],0.6425
same,mean normalized intensity: caldesmon 1,[1],7.092
same,"mean normalized intensity: nuclear receptor subfamily 1, group I, member 3",[1],1.779
same,mean normalized intensity: ESTs,"DE treatment in low serum + AA on MATRIGEL, gene line r2006",1.5857
same,mean normalized intensity: ESTs,"DE treatment in low serum + AA on MATRIGEL, gene line r2025",1.531
same,mean normalized intensity: ESTs,"DE treatment in low serum + AA on MATRIGEL, gene line r2032",0.1336
same,mean normalized intensity: paternally expressed 3,"DE treatment in low serum + AA on MATRIGEL, gene line r2033",2.876
same,mean normalized intensity: ESTs,"DE treatment in low serum + AA on MATRIGEL, gene line r2038",3.262
same,mean normalized intensity: paternally expressed 3,"DE treatment in low serum + AA on MATRIGEL, gene line r2093",2.874
same,mean normalized intensity: ESTs,"DE treatment in low serum + AA on MATRIGEL, gene line r2134",−1.3795
same,mean normalized intensity: ESTs,"DE treatment in low serum + AA on MATRIGEL, gene line r2148",4.454
same,mean normalized intensity: DKFZP566K1924 protein,[2],1.391
same,mean normalized intensity: H. sapiens mRNA for B-HLH DNA binding protein.,[2],3.451
same,"mean normalized intensity: Homo sapiens BCL2-interacting killer (apoptosis-inducing) (BIK), mRNA.",[2],3.562
same,"mean normalized intensity: Homo sapiens Charot-Leyden crystal protein (CLC), mRNA.",[2],2.1096
same,"mean normalized intensity: Homo sapiens HES-related repressor protein 1 HERP1 mRNA, complete cds.",[2],2.406
same,"mean normalized intensity: Homo sapiens HSPC156 protein (HSPC156), mRNA.",[2],1.296
same,"mean normalized intensity: Homo sapiens KIAA0469 gene product (KIAA0469), mRNA.",[2],2.565
same,"mean normalized intensity: Homo sapiens PNAS-123 mRNA, complete cds",[2],1.847
same,"mean normalized intensity: Homo sapiens Wilms tumor 1 (WT1), transcript variant D, mRNA.",[2],−2.435
same,"mean normalized intensity: Homo sapiens cDNA FLJ11398 fis, clone HEMBA1000637.",[2],1.849
same,"mean normalized intensity: Homo sapiens cDNA: FLJ22547 fis, clone HSI00356",[2],2.095
same,"mean normalized intensity: Homo sapiens cadherin 6, type 2, K-cadherin (fetal kidney) (CDH6), mRNA.",[2],−0.8763
same,"mean normalized intensity: Homo sapiens chorionic somatomammotropin hormone 2 (CSH2), transcript variant 1, mRNA.",[2],2.616
same,"mean normalized intensity: Homo sapiens chorionic somatomammotropin hormone 2 (CSH2), transcript variant 4, mRNA.",[2],2.218
same,"mean normalized intensity: Homo sapiens galanin receptor 1 (GALR1), mRNA.",[2],−0.338
same,"mean normalized intensity: Homo sapiens growth hormone 2 (GH2), transcript variant 2, mRNA.",[2],1.4679
same,"mean normalized intensity: Homo sapiens hypothetical protein FLJ20075 (FLJ20075), mRNA.",[2],−0.06528
same,"mean normalized intensity: Homo sapiens mRNA for SCCA2b, complete cds.",[2],0.568
same,mean normalized intensity: Homo sapiens mRNA; cDNA DKFZp586P1124 (from clone DKFZp586P1124),[2],−3.094
same,"mean normalized intensity: Homo sapiens methyl-CpG binding protein MBD2 (MBD2) mRNA, complete cds.",[2],−1.702
same,"mean normalized intensity: Homo sapiens tachykinin, precursor 1 (TAC1), transcript variant beta, mRNA.",[2],1.483
same,"mean normalized intensity: Homo sapiens testis expressed sequence 14 (TEX14), mRNA.",[2],−1.3824
same,"mean normalized intensity: Homo sapiens, Similar to LIM homeobox protein 8, clone IMAGE: 4839343, mRNA.",[2],−1.11
same,"mean normalized intensity: Homo sapiens, Similar to cadherin 6, type 2, K-cadherin (fetal kidney), clone MGC: 1470, mRNA, complete cds.",[2],2.134
same,"mean normalized intensity: Homo sapiens, Similar to hypothetical protein FLJ10058, clone MGC: 34305 IMAGE: 5167647, mRNA, complete cds.",[2],0.2156
same,"mean normalized intensity: Homo sapiens, Similar to hypothetical protein FLJ32001, clone MGC: 39559 IMAGE: 4828136, mRNA, complete cds.",[2],1.269
same,"mean normalized intensity: Homo sapiens, clone IMAGE: 4067166, mRNA",[2],0.277
same,"mean normalized intensity: Homo sapiens, clone IMAGE: 4828836, mRNA.",[2],−1.484
same,"mean normalized intensity: Homo sapiens, serine (or cysteine) proteinase inhibitor, clade B (ovalbumin), member 3, clone MGC: 12244, mRNA, complete cds.",[2],−1.566
same,mean normalized intensity: Human mRNA upregulated during camptothecin-induced apoptosis of U937 cells.,[2],−0.1892
same,"mean normalized intensity: Human platelet-derived growth factor alpha-receptor (PDGFRA) mRNA, exons 13-16",[2],2.905
same,mean normalized intensity: KIAA1151 protein,[2],1.009
same,mean normalized intensity: caldesmon 1,[2],5.634
same,"mean normalized intensity: nuclear receptor subfamily 1, group I, member 3",[2],−0.1968
same,mean normalized intensity: ESTs,"DE treatment in low serum + AA on MEFS, gene line r2006",−1.3
same,mean normalized intensity: ESTs,"DE treatment in low serum + AA on MEFS, gene line r2025",1.373
same,mean normalized intensity: ESTs,"DE treatment in low serum + AA on MEFS, gene line r2032",−1.566
same,mean normalized intensity: paternally expressed 3,"DE treatment in low serum + AA on MEFS, gene line r2033",−0.0118
same,mean normalized intensity: ESTs,"DE treatment in low serum + AA on MEFS, gene line r2038",1.5682
same,mean normalized intensity: paternally expressed 3,"DE treatment in low serum + AA on MEFS, gene line r2093",−3.492
same,mean normalized intensity: ESTs,"DE treatment in low serum + AA on MEFS, gene line r2134",−0.9461
same,mean normalized intensity: ESTs,"DE treatment in low serum + AA on MEFS, gene line r2148",5.334
